Data on four molecules can be found in patent publication US10919914B2, “Heterocyclic compounds and uses thereof” (Infinity Pharmaceuticals, Inc., priority 2016, dated 2021).

The IC50 is the concentration needed to halve the response being measured.

For one experiment, the target named is PI3K γ (Homo sapiens (Human), UniProt P48736). The experiment in a line: PI3-Kinase HTRF assay. The experiment is classed as biochemical. From the text:
The biotinylated PIP3 and the GST-tagged PH domain recruited fluorophores (Streptavidin-Allophycocyanin and Europium-labeled anti-GST respectively) to form the fluorescence resonance energy transfer (FRET) architecture, generating a stable time-resolved FRET signal.
Other commercial kits or systems for assaying PI3-K activities are available. […] An exemplary system is PI 3-Kinase (human) HTRF™ Assay from Upstate. […] Briefly, the assay is a time resolved FRET assay that indirectly measures PIP3 product formed by the activity of a PI3-K. The kinase reaction is performed in a microtiter plate (e.g., a 384 well microtiter plate). […] The plate is sealed and incubated for 15 minutes at room temperature. […] The plate is sealed and incubated for 1 hour at room temperature. […] The plate is sealed, incubated for 1 hour at room temperature, and then read on an appropriate plate reader. Data is analyzed and IC50s are generated using GraphPad Prism 5.
In general terms: In TR-FRET formats the signal depends on donor and acceptor labels being close together.

For a further experiment, the target named is PI3K δ (Homo sapiens (Human), UniProt O00329). The experiment in a line: PI3-Kinase HTRF assay. The experiment is classed as biochemical. The source says:
A PI3-Kinase HTRF® assay kit (cat No. 33-016) purchased from Millipore Corporation is used to screen compounds provided herein. This assay uses specific, high affinity binding of the GRP1 pleckstrin homology (PH) domain to PIP3, the product of a Class 1A or 1B PI3 Kinase acting on its physiological substrate PIP2. During the detection phase of the assay, a complex is generated between the GST-tagged PH domain and biotinylated short chain PIP3. The biotinylated PIP3 and the GST-tagged PH domain recruited fluorophores (Streptavidin-Allophycocyanin and Europium-labeled anti-GST respectively) to form the fluorescence resonance energy transfer (FRET) architecture, generating a stable time-resolved FRET signal. The FRET complex is disrupted in a competitive manner by non-biotinylated PIP3, a product formed in the PI3 Kinase assay.
PI3 Kinase α, γ or δ activity is assayed using the PI3 Kinase HTRF® assay kit (catalogue No. 33-016) purchased from Millipore Corporation. Purified recombinant PI3Kα (catalogue No. 14-602-K), PI3Kβ (catalogue No. 14-603-K), PI3Kγ (catalogue No. 14-558-K), and PI3Kδ (catalogue No. 14-604-K) are obtained from Millipore Corporation. Purified recombinant PI3K enzyme is used to catalyze the phosphorylation of phosphatidylinositol 4,5-bisphosphate (PIP2 at 10 μM) to phosphatidylinositol 3,4,5-trisphosphate (PIP3) in the presence of 10 μM ATP. The assay is carried out in 384-well format and detected using a Perkin Elmer EnVision Xcite Multilabel Reader. Emission ratios are converted into percent inhibitions and imported into GraphPad Prism software. […] IC50 values are determined using a nonlinear regression model available in GraphPad Prism 5.
Other commercial kits or systems for assaying PI3-K activities are available. The commercially available kits or systems can be used to screen for inhibitors and/or agonists of PI3-Ks including, but not limited to, PI 3-Kinase α, β, δ, and γ. […] The plate is sealed, incubated for 1 hour at room temperature, and then read on an appropriate plate reader. Data is analyzed and IC50s are generated using GraphPad Prism 5.

In experiment [1] the test system is PI3K/Akt/mTOR signaling (phosphorylation of Akt-S473 and S6). The experiment in a line: Kinase signaling in blood (phosflow). The class given is cell-based. As to conditions: anti-CD3 stimulated splenocytes or peripheral blood mononuclear cells. As to the method: PI3K/Akt/mTOR signaling is measured in blood cells using the phosflow method (Methods Enzymol. (2007) 434:131-54). This method is by nature a single cell assay so that cellular heterogeneity can be detected rather than population averages. This allows concurrent distinction of signaling states in different populations defined by other markers. Phosflow is also highly quantitative. To test the effects of one or more compounds provided herein, unfractionated splenocytes, or peripheral blood mononuclear cells are stimulated with anti-CD3 to initiate T-cell receptor signaling. The cells are then fixed and stained for surface markers and intracellular phosphoproteins. […]
Similarly, aliquots of whole blood are incubated for 15 minutes with vehicle (e.g., 0.1% DMSO) or kinase inhibitors at various concentrations, before addition of stimuli to crosslink the T cell receptor (TCR) (anti-CD3 with secondary antibody) or the B cell receptor (BCR) using anti-kappa light chain antibody (Fab′2 fragments). […] The level of phosphorylation of kinase substrates such as Akt and S6 are then measured by incubating the fixed cells with labeled antibodies specific to the phosphorylated isoforms of these proteins. The population of cells are then analyzed by flow cytometry.

SMILES strings stand for the structures. Bounds are passed on as bounds.

Chain of PI3K δ (O00329 whole entry, the tested form may be a part): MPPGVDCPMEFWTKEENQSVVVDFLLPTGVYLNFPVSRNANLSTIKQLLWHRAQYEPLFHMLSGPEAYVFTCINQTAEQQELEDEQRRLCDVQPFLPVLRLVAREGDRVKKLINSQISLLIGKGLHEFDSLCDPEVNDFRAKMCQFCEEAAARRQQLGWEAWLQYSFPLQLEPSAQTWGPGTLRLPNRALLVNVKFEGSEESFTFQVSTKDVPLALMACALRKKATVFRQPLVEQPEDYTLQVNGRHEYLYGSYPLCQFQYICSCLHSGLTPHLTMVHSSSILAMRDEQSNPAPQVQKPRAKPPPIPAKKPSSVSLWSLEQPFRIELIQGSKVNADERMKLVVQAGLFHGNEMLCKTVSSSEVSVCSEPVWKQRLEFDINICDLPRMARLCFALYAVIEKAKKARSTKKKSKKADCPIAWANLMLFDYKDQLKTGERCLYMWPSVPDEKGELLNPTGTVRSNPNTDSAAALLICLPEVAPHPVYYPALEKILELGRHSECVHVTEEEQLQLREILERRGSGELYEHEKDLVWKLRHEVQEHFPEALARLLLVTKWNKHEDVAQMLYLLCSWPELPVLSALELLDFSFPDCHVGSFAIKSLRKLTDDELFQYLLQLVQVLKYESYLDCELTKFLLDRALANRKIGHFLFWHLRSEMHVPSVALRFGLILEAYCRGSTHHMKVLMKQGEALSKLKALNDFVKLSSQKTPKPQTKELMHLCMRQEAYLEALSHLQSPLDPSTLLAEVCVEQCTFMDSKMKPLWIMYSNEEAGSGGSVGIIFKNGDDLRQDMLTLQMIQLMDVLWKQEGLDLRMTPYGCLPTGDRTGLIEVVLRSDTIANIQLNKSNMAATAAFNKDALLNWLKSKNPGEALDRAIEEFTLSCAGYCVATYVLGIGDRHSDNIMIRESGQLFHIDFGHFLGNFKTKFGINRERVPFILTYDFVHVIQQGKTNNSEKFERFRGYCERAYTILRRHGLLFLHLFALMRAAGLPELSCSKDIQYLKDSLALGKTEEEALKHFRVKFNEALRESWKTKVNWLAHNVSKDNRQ
Chain of PI3K δ (P27986 whole entry partner, the tested form may be a part): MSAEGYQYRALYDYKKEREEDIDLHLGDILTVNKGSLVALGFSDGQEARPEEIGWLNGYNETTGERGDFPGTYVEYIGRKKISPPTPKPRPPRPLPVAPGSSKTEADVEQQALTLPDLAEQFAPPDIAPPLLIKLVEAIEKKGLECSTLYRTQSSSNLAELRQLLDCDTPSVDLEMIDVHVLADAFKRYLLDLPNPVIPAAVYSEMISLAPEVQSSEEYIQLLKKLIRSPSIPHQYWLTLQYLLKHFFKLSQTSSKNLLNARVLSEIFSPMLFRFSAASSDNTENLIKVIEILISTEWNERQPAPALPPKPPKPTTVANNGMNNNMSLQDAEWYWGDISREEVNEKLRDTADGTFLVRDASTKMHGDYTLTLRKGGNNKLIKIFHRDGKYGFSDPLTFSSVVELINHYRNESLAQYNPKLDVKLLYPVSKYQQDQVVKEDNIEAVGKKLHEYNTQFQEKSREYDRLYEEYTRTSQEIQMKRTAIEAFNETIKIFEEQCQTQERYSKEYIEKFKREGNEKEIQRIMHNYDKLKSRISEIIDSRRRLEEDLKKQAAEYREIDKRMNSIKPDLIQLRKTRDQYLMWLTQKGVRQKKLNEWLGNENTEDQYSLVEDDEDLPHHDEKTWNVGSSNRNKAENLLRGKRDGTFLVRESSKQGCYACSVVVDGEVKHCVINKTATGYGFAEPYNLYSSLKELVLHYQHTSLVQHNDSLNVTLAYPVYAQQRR
Chain of PI3K γ (P48736 whole entry, the tested form may be a part): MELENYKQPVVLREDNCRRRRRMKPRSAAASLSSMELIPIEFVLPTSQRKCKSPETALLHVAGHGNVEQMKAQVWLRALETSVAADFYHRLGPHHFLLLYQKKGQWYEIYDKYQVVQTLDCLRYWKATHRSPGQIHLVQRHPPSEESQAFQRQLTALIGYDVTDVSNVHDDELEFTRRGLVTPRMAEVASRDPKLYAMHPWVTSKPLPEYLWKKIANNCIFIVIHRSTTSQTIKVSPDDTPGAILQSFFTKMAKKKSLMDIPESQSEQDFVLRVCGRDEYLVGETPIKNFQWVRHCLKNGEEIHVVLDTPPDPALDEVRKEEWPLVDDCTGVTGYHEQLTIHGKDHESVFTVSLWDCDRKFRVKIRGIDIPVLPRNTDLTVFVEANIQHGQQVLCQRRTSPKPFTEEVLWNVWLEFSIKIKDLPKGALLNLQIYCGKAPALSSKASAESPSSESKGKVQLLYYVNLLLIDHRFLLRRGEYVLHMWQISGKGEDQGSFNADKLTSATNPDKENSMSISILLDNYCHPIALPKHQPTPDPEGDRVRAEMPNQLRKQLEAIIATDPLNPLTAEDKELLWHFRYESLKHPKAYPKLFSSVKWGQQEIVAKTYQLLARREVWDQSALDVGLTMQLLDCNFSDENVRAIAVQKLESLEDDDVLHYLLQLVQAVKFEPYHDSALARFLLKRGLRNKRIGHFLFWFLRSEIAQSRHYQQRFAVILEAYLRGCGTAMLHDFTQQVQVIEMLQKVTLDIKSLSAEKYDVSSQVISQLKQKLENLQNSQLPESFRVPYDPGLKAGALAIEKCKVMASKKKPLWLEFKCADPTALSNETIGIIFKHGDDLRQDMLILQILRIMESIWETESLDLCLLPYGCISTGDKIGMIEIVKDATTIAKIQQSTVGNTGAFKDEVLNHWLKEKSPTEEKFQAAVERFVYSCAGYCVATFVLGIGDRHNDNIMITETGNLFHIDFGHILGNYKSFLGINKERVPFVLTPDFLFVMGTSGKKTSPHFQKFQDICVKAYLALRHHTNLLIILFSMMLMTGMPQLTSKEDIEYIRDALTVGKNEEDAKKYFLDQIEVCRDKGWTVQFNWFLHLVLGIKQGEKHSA

Take `C[C@H](NC(=O)c1c(N)nn2ccccc12)c1cc2cccc(C#Cc3cnn(C)c3)c2c(=O)n1-c1ccccc1` [Compound 1]: the figures for the IC50 against PI3K γ and against PI3K δ were 0.1 to 0.5 µM and > 10 µM, respectively. In addition, the “PI3K δ/PI3K γ IC50 (selectivity)” value at PI3K γ (δ/γ IC50 selectivity) is “Y (Y = 50 to <850)”.
As to `C[C@H](NC(=O)c1c(N)nn2ccccc12)c1cc2cccc(Cl)c2c(=O)n1-c1ccccc1` [Compound 31], the IC50 at PI3K δ is 1 to 5 µM.
With `C[C@H](NC(=O)c1c(N)ncc2ccccc12)c1cc2cccc(Cl)c2c(=O)n1-c1ccccc1` [Compound 3626], the results for the concentration for half-maximal inhibition (IC50) against PI3K γ and against PI3K δ were > 5 µM and > 10 µM, respectively.
`CO[C@H]1C[C@@H]2CC[C@@H](C)[C@@](O)(O2)C(=O)C(=O)N2CCCC[C@H]2C(=O)O[C@H]([C@H](C)C[C@@H]2CC[C@@H](O)[C@H](OC)C2)CC(=O)[C@H](C)/C=C(\C)[C@@H](O)[C@@H](OC)C(=O)[C@H](C)C[C@H](C)/C=C/C=C/C=C/1C` [rapamycin]: in experiment [1], the “Akt phosphorylation (Akt-S473)” value is recorded as “enhances” and the S6 phosphorylation entry is “inhibits”.
